Reference: PMC5994430, “Mitochondrial Delivery of Phenol Substructure Triggers Mitochondrial Depolarization and Apoptosis of Cancer Cells” (Frontiers in Pharmacology, 2018)

Legend:
BEAS-2B cells [1] = assay: Extracellular LDH release; assay type: cell-based, Human; details: 0.1, 1 or 10 μM, 24 h
Experimental: (§1) The extracellular release of LDH, considered an index of cell damage and necrosis, was measured spectrophotometrically, as reported ([Riganti et al., 2013b]). The extracellular medium was centrifuged at 12,000 × g for 15 min to pellet cellular debris, the cells were washed with fresh medium, detached with 0.01% trypsin/EDTA, re-suspended in 0.2 ml of 82.3 mM triethanolamine phosphate-HCl (pH 7.6), and sonicated on ice with two 10-sec bursts. LDH activity was measured in the extracellular medium and in the cell lysate: 50 μl of extracellular medium or 5 μl of cell lysate were incubated at 37°C with 5 mM NADH. The reaction was started by adding 20 mM pyruvic acid and was monitored for 6 min, measuring absorbance at 340 nm using a Synergy HT Multi-Detection Microplate Reader (Bio-Tek Instruments, Winoosky, MT, United States). The reaction kinetics were linear throughout the time of measurement. Both intracellular and extracellular enzyme activities were expressed as μmol NADH oxidized/min/dish. The results were expressed as percentage of extracellular LDH versus total (intracellular plus extracellular) LDH. Cell viability was measured by the neutral red staining method, as previously reported ([Riganti et al., 2015b]). The absorbance of untreated cells was considered as 100% viability; the results were expressed as percentage of viable cells versus untreated cells. IC50 was calculated with the CompuSyn software^1.
(§2) Supplementary Figure 3. Cytotoxic effects of compound 15 and 16. A549 and BEAS-2B cells were grown in fresh medium (0) or incubated with 0.1, 1 or 10 µM of 15 and 16 for 24 h (panel A) or 72 h (panel B). A. The release of LDH was measured spectrophotometrically in duplicates. Data are means ± SD (n=3). B. Cell viability was measured spectrophotometrically in quadruplicates. Data are […]
(§3) (1 picture or pasted object on this page, not shown here)

A549 cells [2] = assay: Extracellular LDH release; assay type: cell-based, Human; details: 0.1, 1 or 10 μM, 24 h
Experimental: as §1, §2, §3

[3] = tested on: human cancer cell lines and normal cells; assay: Extracellular LDH release, panel of cancer cell lines and normal cells; assay type: cell-based; details: 24 h, 0.1, 1 and 10 μM
Excerpt: Human colon cancer HT29 cells, colon-derived normal fibroblast CCD-18Co cells, lung cancer A549 cells, normal human bronchial epithelial (immortalized with adenovirus 12-SV40 virus hybrid Ad12SV40) BEAS-2B cells, breast cancer MDA-MB-231 cells, normal breast epithelial MCF10A cells, human osteosarcoma U-2OS cells were purchased from ATCC (Manassas, VA, United States). Primary osteoblasts were generated as reported previously ([Buondonno et al., 2016]). HMM and HMC were primary cells stabilized in culture as described ([Aldieri et al., 2004]). The use of primary cells was approved by Ethical Committee of the San Luigi Gonzaga Hospital, Orbassano, (protocol #126/2016). […]
The extracellular release of LDH, considered an index of cell damage and necrosis, was measured spectrophotometrically, as reported ([Riganti et al., 2013b]). […] LDH activity was measured in the extracellular medium and in the cell lysate: 50 μl of extracellular medium or 5 μl of cell lysate were incubated at 37°C with 5 mM NADH. The reaction was started by adding 20 mM pyruvic acid and was monitored for 6 min, measuring absorbance at 340 nm using a Synergy HT Multi-Detection Microplate Reader (Bio-Tek Instruments, Winoosky, MT, United States). […] Both intracellular and extracellular enzyme activities were expressed as μmol NADH oxidized/min/dish. […] IC50 was calculated with the CompuSyn software^1. […]

BEAS-2B cells [4] = assay: Cell cycle analysis (propidium iodide flow cytometry); assay type: cell-based, Human; details: 0.1 μM, 24 h
Experimental: (§4) 1 × 10^4 cells were harvested, washed with PBS, treated with 0.25 mg/ml RNAse and stained for 15 min with 50 μg/ml propidium iodide. Cell cycle distribution was analyzed by Guava® easyCyte flow cytometer (Millipore, Billerica, MA, United States), using the InCyte software (Millipore).
(§5) FIGURE 7 Effects of phenol TPP-derivatives on mitochondria-dependent apoptosis. A549 and BEAS-2B cells were incubated 24 h in fresh medium (ctrl) or in medium containing 0.1 μM of 1 or 2. (A,B) The activity of caspase 9 and 3 was measured fluorimetrically, in duplicates. Data are means ± SD (n = 3). For both panels: ^∗p < 0.001 vs. A549 ctrl cells; °p < 0.001 for BEAS-2B cells vs. the corresponding condition in A549 cells. (C,D) Cell cycle distribution, measured in duplicates. Data are means ± SD (n = 3). For both panels: ^∗p < 0.001 vs. A549 ctrl cells: °p < 0.001 for BEAS-2B cells vs. the corresponding condition in A549 cells. (E) Bright field microscope analysis of cells. Magnification: 60 × objective (0.52 numerical aperture); 10 × ocular lens. Bar: 20 μM. The micrographs are representative of three experiments with similar results.

A549 cells [5] = assay: as above; assay type: cell-based, Human; details: 0.1 μM, 24 h
Experimental: as §4, §5

BEAS-2B cells [6] = assay: Bright field morphological analysis; assay type: cell-based, Human; details: 0.1 μM, 24 h
Excerpt: (§6) Human colon cancer HT29 cells, colon-derived normal fibroblast CCD-18Co cells, lung cancer A549 cells, normal human bronchial epithelial (immortalized with adenovirus 12-SV40 virus hybrid Ad12SV40) BEAS-2B cells, breast cancer MDA-MB-231 cells, normal breast epithelial MCF10A cells, human osteosarcoma U-2OS cells were purchased from ATCC (Manassas, VA, United States). Primary osteoblasts were generated as reported previously ([Buondonno et al., 2016]). HMM and HMC were primary cells stabilized in culture as described ([Aldieri et al., 2004]). The use of primary cells was approved by Ethical Committee of the San Luigi Gonzaga Hospital, Orbassano, (protocol #126/2016). All subjects gave written informed consent in accordance with the Declaration of Helsinki. Cells were maintained in medium supplemented with 10% v/v fetal bovine serum, 1% v/v penicillin-streptomycin, 1% v/v L-glutamine. Morphological analysis was performed with a bright field microscope (Leica Microsystems, Wetzlar, Germany). At least 5 fields/experimental condition were examined.
as §5

A549 cells [7] = assay: Bright field morphological analysis; assay type: cell-based, Human; details: 0.1 μM, 24 h, compared with untreated cells
Excerpt: as §6, §5

caspase 3 = assay: Caspase 3 activity in BEAS-2B cell lysates; assay type: cell-based, Human; details: 0.1 μM, 24 h
Experimental: (§7) The activity of caspase 9 and 3 was measured by incubating 20 μg cell lysates with the respective fluorogenic substrates Ac-LEHD-AMC (LEHD-AMC) or DEVD-AMC (DEVD-AMC), as reported ([Pinzón-Daza et al., 2012]). Results were expressed as nmoles AMC/mg protein.
as §5

caspase 9 [8] = assay: Caspase 9 activity in A549 cell lysates; assay type: cell-based, Human; details: 0.1 μM, 24 h
Experimental: as §7, §5

caspase 9 [9] = assay: Caspase 9 activity in BEAS-2B cell lysates; assay type: cell-based, Human; details: 0.1 μM, 24 h
Experimental: as §7, §5

| Compound | release of LDH (BEAS-2B cells [1]) | release of LDH (A549 cells [2]) | release of LDH in the extracellular medium [3] | cell cycle distribution (BEAS-2B cells [4]) | percentage of cells in S-phase (A549 cells [5]) | percentage of cells in the sub-Go phase (A549 cells [5]) | cell morphology (BEAS-2B cells [6]) | cell morphology (A549 cells [7]) | activity of caspase 3 (caspase 3) | activity of caspase 9 (caspase 9 [8]) | activity of caspase 9 (caspase 9 [9]) |
| --- | --- | --- | --- | --- | --- | --- | --- | --- | --- | --- | --- |
| Oc1ccc(C[P+](c2ccccc2)(c2ccccc2)c2ccccc2)cc1C(F)(F)F.[Br-] [Compound 16] | did not increase the release of LDH | did not increase the release of LDH | – | – | – | – | – | – | – | – | – |
| Oc1ccc(C[P+](c2ccccc2)(c2ccccc2)c2ccccc2)cc1.[Br-] [Compound 15] | did not increase the release of LDH | did not increase the release of LDH | – | – | – | – | – | – | – | – | – |
| CC(=O)Oc1ccc(C[P+](c2ccccc2)(c2ccccc2)c2ccccc2)cc1.[Br-] [Compound 1] | – | – | dose-dependent increase | no change | reduced percentage | increased | decreased cell density without appreciable morphological signs of apoptosis | reduced cell number and a clear round-shaped morphology | remained similar to untreated cells | strong activation | remained similar to untreated cells |
| O=C(Oc1ccc(C[P+](c2ccccc2)(c2ccccc2)c2ccccc2)cc1C(F)(F)F)c1ccccc1.[Br-] [Compound 2] | – | – | dose-dependent increase | no change | reduced percentage | increased | decreased cell density without appreciable morphological signs of apoptosis | reduced cell number and a clear round-shaped morphology | remained similar to untreated cells | strong activation | remained similar to untreated cells |
